Literature values as cited in PMC8241576 (Biophysical Journal, 2021).

Conditions: in water at 25°C

## Cl.N=c1ccc2c(-c3ccccc3C(=O)O)c3ccc(N)cc3oc-2c1 [Rh110, Rhodamine 110]
  diffusion coefficient: 4.4 × 10^−6 cm^2 s^−1
  hydrodynamic radius of free dye: ~0.56 nm
